Laboratory results from patent US11767310B2, “Nicotinamide RIPK1 inhibitors” (AbbVie Inc., priority 2021, dated 2023).
Like-named read-outs stand apart in the source and are kept apart here.

Columns and labels:
Assay in all cases: Kinase binding screen
Details in all cases: read-out: Percent Control at 100 nM Compound Concentration
FLT3-autoinhibited = FLT3-autoinhibited (Homo sapiens (Human), UniProt P36888)
DYRK1A = DYRK1A (Homo sapiens (Human), UniProt Q13627)
MY03A = MY03A (Homo sapiens (Human), UniProt Q8NEV4)
NEK2 = NEK2 (Homo sapiens (Human), UniProt P51955)
SGK2 = SGK2 (Homo sapiens (Human), UniProt Q9HBY8)
[1] = target: RPS6KA5(Kin.Dom.1-N-terminal) (Homo sapiens (Human), UniProt O75582)
CSNK1G2 = CSNK1G2 (Homo sapiens (Human), UniProt P78368)
FLT3 = FLT3 (Homo sapiens (Human), UniProt P36888)
LATS2 = LATS2 (Homo sapiens (Human), UniProt Q9NRM7)
MYLK2 = MYLK2 (Homo sapiens (Human), UniProt Q9H1R3)
ZAK = ZAK (Homo sapiens (Human), UniProt Q9NYL2)
AKT1 = AKT1 (Homo sapiens (Human), UniProt P31749)
[2] = target: ABL1(Y253F)-pho sphorylated (Homo sapiens (Human), UniProt P00519, Y253F)
PRKR = PRKR (Homo sapiens (Human), UniProt P19525)
MLCK = MLCK (Homo sapiens (Human), UniProt Q32MK0)
CAMKK1 = CAMKK1 (Homo sapiens (Human), UniProt Q8N5S9)
NDR1 = NDR1 (Homo sapiens (Human), UniProt Q15208)
BRSK2 = BRSK2 (Homo sapiens (Human), UniProt Q8IWQ3)
GRK3 = GRK3 (Homo sapiens (Human), UniProt P35626)
CASK = CASK (Homo sapiens (Human), UniProt O14936)
PKAC-beta = PKAC-beta (Homo sapiens (Human), UniProt P22694)
TNNI3K = TNNI3K (Homo sapiens (Human), UniProt Q59H18)
QSK = QSK (Homo sapiens (Human), UniProt Q9Y2K2)
[3] = target: ABL1(F317L)-phosphorylated (Homo sapiens (Human), UniProt P00519, F317L)
ROCK1 = ROCK1 (Homo sapiens (Human), UniProt Q13464)
AMPK-alpha1 = AMPK-alpha1 (Homo sapiens (Human), UniProt Q13131)
MEK5 = MEK5 (Homo sapiens (Human), UniProt Q13163)
p38-beta = p38-beta (Homo sapiens (Human), UniProt Q15759)
LRRK2 = LRRK2 (Homo sapiens (Human), UniProt Q5S007)

MY03A, sequence (Q8NEV4 whole entry): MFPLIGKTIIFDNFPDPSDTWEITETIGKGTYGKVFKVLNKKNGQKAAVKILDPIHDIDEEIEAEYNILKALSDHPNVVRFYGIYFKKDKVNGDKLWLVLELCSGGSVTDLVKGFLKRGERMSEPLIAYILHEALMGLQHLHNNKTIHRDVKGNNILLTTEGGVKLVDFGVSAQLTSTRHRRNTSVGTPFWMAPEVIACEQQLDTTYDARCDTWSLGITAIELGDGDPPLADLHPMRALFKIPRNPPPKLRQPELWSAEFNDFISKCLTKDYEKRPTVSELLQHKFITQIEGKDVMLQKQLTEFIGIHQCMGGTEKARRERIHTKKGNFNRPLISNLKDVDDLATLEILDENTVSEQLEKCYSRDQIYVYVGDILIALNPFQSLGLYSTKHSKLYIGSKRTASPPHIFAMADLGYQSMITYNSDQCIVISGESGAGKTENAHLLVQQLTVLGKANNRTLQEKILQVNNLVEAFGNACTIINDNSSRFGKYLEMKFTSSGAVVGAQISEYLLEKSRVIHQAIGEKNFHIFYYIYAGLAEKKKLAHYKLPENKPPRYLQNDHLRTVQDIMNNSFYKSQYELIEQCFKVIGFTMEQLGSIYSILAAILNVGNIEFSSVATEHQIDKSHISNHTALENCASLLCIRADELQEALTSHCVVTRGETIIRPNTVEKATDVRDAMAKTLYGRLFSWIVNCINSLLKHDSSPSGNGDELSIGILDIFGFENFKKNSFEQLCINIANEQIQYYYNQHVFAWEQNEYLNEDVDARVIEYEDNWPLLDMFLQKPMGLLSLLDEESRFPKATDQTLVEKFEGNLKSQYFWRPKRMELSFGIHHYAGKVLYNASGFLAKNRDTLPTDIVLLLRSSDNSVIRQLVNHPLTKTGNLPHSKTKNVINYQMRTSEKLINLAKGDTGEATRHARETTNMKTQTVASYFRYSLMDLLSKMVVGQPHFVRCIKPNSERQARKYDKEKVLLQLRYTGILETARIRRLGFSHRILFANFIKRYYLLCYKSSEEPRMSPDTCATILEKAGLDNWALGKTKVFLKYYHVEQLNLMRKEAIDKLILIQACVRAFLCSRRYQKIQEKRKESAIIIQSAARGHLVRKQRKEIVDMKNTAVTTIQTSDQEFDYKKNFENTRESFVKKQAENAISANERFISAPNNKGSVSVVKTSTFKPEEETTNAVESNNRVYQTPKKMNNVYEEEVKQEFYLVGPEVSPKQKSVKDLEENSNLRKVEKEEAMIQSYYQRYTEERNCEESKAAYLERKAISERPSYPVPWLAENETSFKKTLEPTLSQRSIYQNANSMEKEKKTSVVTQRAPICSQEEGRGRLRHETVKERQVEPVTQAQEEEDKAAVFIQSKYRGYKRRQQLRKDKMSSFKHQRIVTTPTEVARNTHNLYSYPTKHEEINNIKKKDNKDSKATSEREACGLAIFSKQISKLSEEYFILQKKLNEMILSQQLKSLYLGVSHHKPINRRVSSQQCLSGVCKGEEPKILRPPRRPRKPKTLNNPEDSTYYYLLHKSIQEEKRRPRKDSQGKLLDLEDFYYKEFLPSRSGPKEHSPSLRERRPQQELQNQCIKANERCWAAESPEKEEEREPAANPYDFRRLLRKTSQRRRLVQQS
CAMKK1, sequence (Q8N5S9 whole entry): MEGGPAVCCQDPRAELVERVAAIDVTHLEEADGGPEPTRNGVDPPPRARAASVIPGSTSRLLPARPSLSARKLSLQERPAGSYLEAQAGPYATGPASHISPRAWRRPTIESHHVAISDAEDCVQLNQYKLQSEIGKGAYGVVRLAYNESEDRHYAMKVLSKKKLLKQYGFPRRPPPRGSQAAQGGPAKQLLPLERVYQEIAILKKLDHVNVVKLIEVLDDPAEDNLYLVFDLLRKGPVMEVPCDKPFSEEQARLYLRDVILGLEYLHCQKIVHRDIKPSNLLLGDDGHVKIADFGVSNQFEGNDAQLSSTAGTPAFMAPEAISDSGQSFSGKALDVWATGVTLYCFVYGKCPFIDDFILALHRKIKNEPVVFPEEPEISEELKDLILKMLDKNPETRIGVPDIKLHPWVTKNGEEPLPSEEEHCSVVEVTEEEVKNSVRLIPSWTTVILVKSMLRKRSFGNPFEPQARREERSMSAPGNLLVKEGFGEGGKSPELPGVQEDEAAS
BRSK2, sequence (Q8IWQ3 whole entry): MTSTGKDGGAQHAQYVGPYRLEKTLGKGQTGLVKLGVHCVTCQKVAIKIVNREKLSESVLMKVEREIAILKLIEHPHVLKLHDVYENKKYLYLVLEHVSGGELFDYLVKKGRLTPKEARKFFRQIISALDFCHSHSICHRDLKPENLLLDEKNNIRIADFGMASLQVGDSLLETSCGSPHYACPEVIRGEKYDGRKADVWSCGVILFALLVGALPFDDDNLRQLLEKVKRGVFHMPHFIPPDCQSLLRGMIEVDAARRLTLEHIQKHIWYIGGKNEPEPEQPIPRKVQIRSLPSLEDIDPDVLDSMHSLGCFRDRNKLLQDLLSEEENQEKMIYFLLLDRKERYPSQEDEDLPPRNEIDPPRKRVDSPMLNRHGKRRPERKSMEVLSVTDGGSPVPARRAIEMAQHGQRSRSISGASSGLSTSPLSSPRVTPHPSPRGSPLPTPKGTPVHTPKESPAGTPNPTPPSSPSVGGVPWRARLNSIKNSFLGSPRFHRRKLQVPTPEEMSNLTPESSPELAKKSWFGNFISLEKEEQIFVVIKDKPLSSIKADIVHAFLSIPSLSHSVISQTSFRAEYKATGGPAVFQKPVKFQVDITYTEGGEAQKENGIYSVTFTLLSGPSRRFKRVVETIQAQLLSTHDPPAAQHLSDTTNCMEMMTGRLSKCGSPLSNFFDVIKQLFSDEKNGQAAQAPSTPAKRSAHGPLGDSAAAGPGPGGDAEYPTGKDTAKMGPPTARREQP
QSK, sequence (Q9Y2K2 whole entry): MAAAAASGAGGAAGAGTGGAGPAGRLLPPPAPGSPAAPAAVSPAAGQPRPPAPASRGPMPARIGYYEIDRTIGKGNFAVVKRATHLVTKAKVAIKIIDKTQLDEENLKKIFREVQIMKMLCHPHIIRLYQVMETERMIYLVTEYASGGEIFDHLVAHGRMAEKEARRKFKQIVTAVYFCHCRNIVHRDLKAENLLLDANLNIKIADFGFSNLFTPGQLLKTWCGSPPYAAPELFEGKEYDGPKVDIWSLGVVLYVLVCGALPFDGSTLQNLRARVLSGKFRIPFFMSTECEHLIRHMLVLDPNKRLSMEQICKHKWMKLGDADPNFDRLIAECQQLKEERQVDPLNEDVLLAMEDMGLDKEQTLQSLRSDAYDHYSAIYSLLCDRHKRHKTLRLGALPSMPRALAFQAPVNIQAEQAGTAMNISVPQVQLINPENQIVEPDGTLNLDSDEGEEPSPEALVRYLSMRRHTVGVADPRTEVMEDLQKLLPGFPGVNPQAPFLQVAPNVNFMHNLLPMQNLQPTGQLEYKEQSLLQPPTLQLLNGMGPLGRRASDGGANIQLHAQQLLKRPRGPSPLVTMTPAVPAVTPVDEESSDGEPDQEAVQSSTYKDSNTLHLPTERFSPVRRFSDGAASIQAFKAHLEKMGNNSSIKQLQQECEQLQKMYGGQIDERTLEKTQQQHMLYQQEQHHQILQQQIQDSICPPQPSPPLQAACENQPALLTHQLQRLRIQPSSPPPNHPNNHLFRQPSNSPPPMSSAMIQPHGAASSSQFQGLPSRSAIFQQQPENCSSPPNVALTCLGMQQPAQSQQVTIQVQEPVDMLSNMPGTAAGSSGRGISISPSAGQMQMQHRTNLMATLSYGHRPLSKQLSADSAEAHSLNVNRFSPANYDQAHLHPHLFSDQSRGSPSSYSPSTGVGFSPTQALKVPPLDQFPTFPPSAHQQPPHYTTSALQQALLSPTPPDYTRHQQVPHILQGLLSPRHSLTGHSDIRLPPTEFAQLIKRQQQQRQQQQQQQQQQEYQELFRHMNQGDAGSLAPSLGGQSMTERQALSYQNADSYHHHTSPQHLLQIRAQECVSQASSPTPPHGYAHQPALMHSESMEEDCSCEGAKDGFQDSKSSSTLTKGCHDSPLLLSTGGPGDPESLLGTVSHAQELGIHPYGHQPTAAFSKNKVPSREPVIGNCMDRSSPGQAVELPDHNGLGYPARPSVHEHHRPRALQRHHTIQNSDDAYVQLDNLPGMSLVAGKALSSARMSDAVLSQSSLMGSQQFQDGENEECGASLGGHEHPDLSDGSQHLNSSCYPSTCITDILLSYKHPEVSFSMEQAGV
MLCK, sequence (Q32MK0 whole entry): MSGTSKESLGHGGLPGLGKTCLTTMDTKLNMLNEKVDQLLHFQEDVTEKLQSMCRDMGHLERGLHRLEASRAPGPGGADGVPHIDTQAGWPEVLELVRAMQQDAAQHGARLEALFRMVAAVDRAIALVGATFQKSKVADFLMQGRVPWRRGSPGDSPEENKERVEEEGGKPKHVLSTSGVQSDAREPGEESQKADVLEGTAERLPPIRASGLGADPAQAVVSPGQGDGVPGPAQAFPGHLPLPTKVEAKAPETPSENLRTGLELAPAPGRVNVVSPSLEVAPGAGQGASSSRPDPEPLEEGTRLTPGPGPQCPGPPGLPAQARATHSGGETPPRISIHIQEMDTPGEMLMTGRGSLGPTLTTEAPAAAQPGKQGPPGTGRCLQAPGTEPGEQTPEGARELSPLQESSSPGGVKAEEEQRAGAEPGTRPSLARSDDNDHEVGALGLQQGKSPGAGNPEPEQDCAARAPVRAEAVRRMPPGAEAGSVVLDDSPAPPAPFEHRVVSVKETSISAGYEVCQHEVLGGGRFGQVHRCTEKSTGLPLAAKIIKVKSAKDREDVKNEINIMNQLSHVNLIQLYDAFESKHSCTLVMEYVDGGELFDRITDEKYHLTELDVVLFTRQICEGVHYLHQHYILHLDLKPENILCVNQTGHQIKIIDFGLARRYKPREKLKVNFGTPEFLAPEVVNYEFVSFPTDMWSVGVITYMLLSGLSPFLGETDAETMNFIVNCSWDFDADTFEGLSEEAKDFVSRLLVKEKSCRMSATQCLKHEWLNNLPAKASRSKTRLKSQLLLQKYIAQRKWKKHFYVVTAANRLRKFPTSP

CN(C[C@H](Cc1ccccc1)OP(=O)(O)O)C(=O)c1cncc(C#Cc2cnn(C(F)F)c2)c1 [Example 19, (S)-1-(5-((1-(difluoromethyl)-1H-pyrazol-4-yl)ethynyl)-N-methylnicotinamido)-3-phenylpropan-2-yl dihydrogen phosphate]
remaining activity at 0.1 µM (FLT3-autoinhibited): 96%
remaining activity at 0.1 µM (DYRK1A): 85%
remaining activity at 0.1 µM (MY03A): 93%
remaining activity at 0.1 µM (NEK2): 100%
remaining activity at 0.1 µM (SGK2): 93%
remaining activity at 0.1 µM [1]: 100%
remaining activity at 0.1 µM (CSNK1G2): 95%
remaining activity at 0.1 µM (FLT3): 100%
remaining activity at 0.1 µM (LATS2): 100%
remaining activity at 0.1 µM (MYLK2): 96%
remaining activity at 0.1 µM (ZAK): 100%
remaining activity at 0.1 µM (AKT1): 100%
remaining activity at 0.1 µM [2]: 100%
remaining activity at 0.1 µM (PRKR): 97%
remaining activity at 0.1 µM (MLCK): 100%
remaining activity at 0.1 µM (CAMKK1): 100%
remaining activity at 0.1 µM (NDR1): 100%
remaining activity at 0.1 µM (BRSK2): 95%
remaining activity at 0.1 µM (GRK3): 81%
remaining activity at 0.1 µM (CASK): 94%
remaining activity at 0.1 µM (PKAC-beta): 100%
remaining activity at 0.1 µM (TNNI3K): 100%
remaining activity at 0.1 µM (QSK): 85%
remaining activity at 0.1 µM [3]: 88%
remaining activity at 0.1 µM (ROCK1): 100%
remaining activity at 0.1 µM (AMPK-alpha1): 100%
remaining activity at 0.1 µM (MEK5): 87%
remaining activity at 0.1 µM (p38-beta): 97%
remaining activity at 0.1 µM (LRRK2): 81%

CN(C[C@@H](O)Cc1ccccc1)C(=O)c1cncc(C#Cc2cnn(C(F)F)c2)c1 [Example 2, (S)-5-((1-(difluoromethyl)-1H-pyrazol-4-yl)ethynyl)-N-(2-hydroxy-3-phenylpropyl)-N-methylnicotinamide]
remaining activity at 0.1 µM (FLT3-autoinhibited; FLT3-autoinhibited): 95%
remaining activity at 0.1 µM (DYRK1A; DYRK1A): 90%
remaining activity at 0.1 µM (MY03A; MY03A): 99%
remaining activity at 0.1 µM (NEK2; NEK2): 100%
remaining activity at 0.1 µM (SGK2; SGK2): 100%
remaining activity at 0.1 µM ([1]; RPS6KA5(Kin.Dom.1-N-terminal)): 91%
remaining activity at 0.1 µM (CSNK1G2; CSNK1G2): 100%
remaining activity at 0.1 µM (FLT3; FLT3): 100%
remaining activity at 0.1 µM (LATS2; LATS2): 98%
remaining activity at 0.1 µM (MYLK2; MYLK2): 100%
remaining activity at 0.1 µM (ZAK; ZAK): 100%
remaining activity at 0.1 µM (AKT1; AKT1): 100%
remaining activity at 0.1 µM ([2]; ABL1(Y253F)-pho sphorylated): 100%
remaining activity at 0.1 µM (PRKR; PRKR): 100%
remaining activity at 0.1 µM (MLCK; MLCK): 100%
remaining activity at 0.1 µM (CAMKK1; CAMKK1): 100%
remaining activity at 0.1 µM (NDR1; NDR1): 100%
remaining activity at 0.1 µM (BRSK2; BRSK2): 96%
remaining activity at 0.1 µM (GRK3; GRK3): 82%
remaining activity at 0.1 µM (CASK; CASK): 99%
remaining activity at 0.1 µM (PKAC-beta; PKAC-beta): 92%
remaining activity at 0.1 µM (TNNI3K; TNNI3K): 100%
remaining activity at 0.1 µM (QSK; QSK): 88%
remaining activity at 0.1 µM ([3]; ABL1(F317L)-phosphorylated): 82%
remaining activity at 0.1 µM (ROCK1; ROCK1): 100%
remaining activity at 0.1 µM (AMPK-alpha1; AMPK-alpha1): 100%
remaining activity at 0.1 µM (MEK5; MEK5): 89%
remaining activity at 0.1 µM (p38-beta; p38-beta): 100%
remaining activity at 0.1 µM (LRRK2; LRRK2): 100%
